# Measured values reported in patent US8410150B2, “Inhibitors of carnitine palmitoyltransferase and treating cancer” (University Health Network, priority 2007, dated 2013).
# Where two headings read alike, the source gives them in different places.
# Tests used:
# Test in all cases: Cell growth inhibition, SRB assay
# Type in all cases: cell-based, human
# Hs578T = conditions: Homo sapiens, Hs-578T; Breast Hs578T, 3% FBS
# Method: (§1) Compounds were dissolved in DMSO and further diluted in cell culture medium for the experiments performed. Cells were seeded into 96-well plates with 1,500-5,000 cells/well according to cell growth rate. After 24 h, DMEM medium containing 10% FBS were changed to DMEM containing 3% FBS for cancer cells and additional 3% FBS were added into the culture medium for normal cells. The compound was added into the cell culture at the indicated concentrations, and the final concentration of DMSO was adjusted to a final concentration of 0.1%. Cells were subjected to either normoxic condition (20% O2) for 6 days or hypoxic condition (0.2% O2) for 2 days and then transferred to normoxic condition for 4 days. Cell viability was assessed by Sulforhodamine B (SRB) assay at Day 6.
# (§2) Sulforhodamine B (SRB) (Sigma, Oakville, ON, Canada) is a water-soluble dye that binds to the basic amino acids of the cellular proteins. Thus, colorimetric measurement of the bound dye provides an estimate of the total protein mass that is related to the cell number. The cells were fixed in situ by gently aspirating off the culture media and adding 50 ul of cold 10% trichloroacetic Acid (TCA) per well and incubated at 4° C. for 30-60 min. The plates were washed five times with water and allowed to air dry for 5 min. 50 ul of 0.4% (w/v) SRB dissolved in 1% (v/v) acetic acid were added into each well, plates were then incubated at RT for 30 min for staining, washed four times with 1% acetic acid to remove any unbound dye and then allowed to air dry for 5 min. Stain was solubilized with 100 ul of 10 mM Tris pH 10.5 per well. Absorbance was read at 570 nm on a spectrophotometer. GI50 (compound concentration required for 50% of growth inhibition) was calculated using GraphPad Prism 4.0 software (GraphPad Software, Inc., San Diego, Calif., USA).
# (§3) Cell viability of various cell lines treated with 3-carboxy-N,N,N-trimethyl-2-pentadecanamidopropan-1-aminium (“nPAC”) and compound of Examples S7, S63, S66, S90, S89, S67, S75 and S10 was also assessed in a manner as described above in Example 5.
# SW480 = conditions: Homo sapiens; Colon SW480, 3% FBS
# Method: as §1, §2, §3
# SW620 = conditions: Homo sapiens, SW-620; Colon SW620, 3% FBS
# Method: as §1, §2, §3
# HCT-15 = conditions: Homo sapiens; Colon HCT-15, 3% FBS
# Method: as §1, §2, §3
# COLO-205 = conditions: Homo sapiens; Colon COLO-205, 3% FBS
# Method: as §1, §2, §3
# A54 = conditions: Homo sapiens; Lung A54, 3% FBS
# Method: as §1, §2, §3
# A172 = conditions: Homo sapiens
# Method: (§4) Human cancer cells (MCF-7, H358, H460, HCT116 p53^+/+, HCT116 p53^−/−, A172, PC-3, DU-145 and SW626) were maintained in DMEM medium containing 10% Fetal Bovine Serum (FBS) (Invitrogen, Burlington, ON, Canada) and normal cells HMEC, 184A1, NHBE and PrEC were cultured in MEGM, MEGM plus transferring and cholera toxin, BEGM and PrEGM supplemented with various growth factors (Cambrex, Charles city, IA, USA), respectively.
# as §1, §2, §3
# PC-3 = conditions: Homo sapiens
# Method: as §4, §1, §2, §3
# MCF-7 = conditions: Homo sapiens
# Method: as §4, §1, §2, §3
# SW626 = conditions: Homo sapiens
# Method: as §4, §1, §2, §3
# H358 = conditions: Homo sapiens
# Method: as §4, §1, §2, §3
# [1] = A 172, Brain A172, 3% FBS, read-out: GI50
# [2] = Prostate PC-3, 3% FBS, read-out: GI50
# [3] = MCF7, Breast MCF-7, 3% FBS, read-out: GI50
# [4] = Ovarian SW626, 3% FBS, read-out: GI50
# [5] = NCI-H358, Lung H358, 3% FBS, read-out: GI50
# [6] = MCF7, 144 h, treated 6 days, SRB assay, mean±SD of 2 experiments (FIG. 1, 2), read-out: GI50 for MCF-7
# [7] = NCI-H358, 144 h, treated 6 days, SRB assay, mean±SD of 2 experiments (FIG. 1, 2), read-out: GI50 for H358
Structure (SMILES),GI50 (Hs578T) [µM],GI50 (SW480) [µM],GI50 (SW620) [µM],GI50 (HCT-15) [µM],GI50 (COLO-205) [µM],GI50 (A54) [µM],GI50 (A172; [1]) [µM],GI50 (PC-3; [2]) [µM],GI50 (MCF-7; [3]) [µM],GI50 (SW626; [4]) [µM],GI50 (H358; [5]) [µM],"GI50 (A172; A 172, 144 h, A172, normoxic condition (20% O2) for 6 days, read-out: GI50 Normoxi) [µM]","GI50 (A172; A 172, A172, hypoxic condition (0.2% O2) for 2 days, then normoxic for 4 days, read-out: GI50 Hypoxia) [µM]","GI50 (A172; A 172, SRB assay, mean±SD of 2 experiments (FIG. 2), read-out: GI50 for A172) [µM]","GI50 (PC-3; PC-3, SRB assay, mean±SD of 2 experiments (FIG. 2), read-out: GI50 for PC-3) [µM]","GI50 (MCF-7; MCF7, 144 h, MCF-7, normoxic condition (20% O2) for 6 days, read-out: GI50 Normoxi) [µM]",GI50 (MCF-7; [6]) [µM],"GI50 (MCF-7; MCF7, MCF-7, hypoxic condition (0.2% O2) for 2 days, then normoxic for 4 days, read-out: GI50 Hypoxia) [µM]","GI50 (SW626; SW626, SRB assay, mean±SD of 2 experiments (FIG. 2), read-out: GI50 for SW626) [µM]",GI50 (H358; [7]) [µM]
"CCCCCCCCCCCCc1ccc(NS(=O)(=O)N[C@H](CC(=O)O)C[N+](C)(C)C)cc1 [Example S89, (R)-3-(N-(4-dodecylphenyl)sulfamoylamino)-4-(trimethylammonio)-butanoate]",7.3,1.5,1.9,2.2,1.4,21,4.1,1.6,4.2,2.3,1.4,–,–,–,–,–,–,–,–,–
"CCCCCCCCCCc1ccc(S(=O)(=O)N[C@H](CC(=O)O)C[N+](C)(C)C)cc1 [Example S75, (R)-3-carboxy-2-(4-decylphenylsulfonamido)-N,N,N-trimethylpropan-1-aminium 2,2,2-trifluoroacetate]",13,1.9,4.1,5.6,3.6,31,18,1.5,11,4.1,2.8,–,–,–,–,–,–,–,–,–
"CCCCCCCCCCCCCCc1ccc(NS(=O)(=O)N[C@H](CC(=O)O)C[N+](C)(C)C)cc1 [Example S90, (R)-3-(N-(4-tetradecylphenyl)sulfamoylamino)-4-(trimethylammonio)-butanoate]",8.2,1.3,2.4,3.3,2.4,21,6.6,1.3,4,3.1,1.1,–,–,–,–,–,–,–,–,–
"CCCCCCCCc1ccc(NC(=O)N[C@H](CC(=O)[O-])C[N+](C)(C)C)cc1 [Example S7, (R)-3-(3-(4-octylphenyl)ureido)-4-(trimethylammonio)butanoate]",33,0.8,1.5,1.3,0.9,25,3,0.7,4.5,0.8,0.5,3.8 ± 0.5,1.9 ± 0.8,3.8 ± 0.5,0.8 ± 0.3,5.3 ± 1.3,5 ± 1.3,2.5 ± 0.6,0.8 ± 0.7,1 ± 0.3
"CCCCCCCCCCOc1ccc(C(=O)N[C@H](CC(=O)O)C[N+](C)(C)C)cc1 [Example S63, (R)-3-(4-(decyloxy)benzamido)-4-(trimethylammonio)butanoate 2,2,2-trifluoroacetate]",3.7,0.4,0.5,0.5,0.3,14,0.9,0.3,0.4,1.2,0.4,–,–,–,–,–,–,–,–,–
"CCCCCCCCCCOc1cccc(C(=O)N[C@H](CC(=O)[O-])C[N+](C)(C)C)c1 [Example S67, (R)-3-(3-(decyloxy)benzamido)-4-(trimethylammonio)butanoate]",17,0.7,5.5,14,2.7,88,3.6,1.5,0.7,2.7,0.7,–,–,–,–,–,–,–,–,–
"CCCCCCCCCCc1ccc(C(=O)N[C@H](CC(=O)[O-])C[N+](C)(C)C)cc1 [Example S66, (R)-3-(4-decylbenzamido)-4-(trimethylammonio)butanoate]",8.2,0.3,0.6,1.1,0.4,28,1.8,0.3,0.1,1.5,0.4,–,–,–,–,–,–,–,–,–
"CCCCCCCOc1ccc(NC(=O)N[C@H](CC(=O)[O-])C[N+](C)(C)C)cc1 [Example S10, (R)-3-(3-(4-(heptyloxy)phenyl)ureido)-4-(trimethylammonio)butanoate]",> 50,9.3,19,28,4.6,> 50,40,5.3,44,15,3.4,–,–,–,–,–,1 ± 0.1,–,–,4.1 ± 1.3
